# Test results from patent publication US20060014776A1, “Antitumoral compounds” (Instituto Biomar S.A., priority 2004, published 2006).
# Tests used:
# [1] = tested on: H116 human colon cells; assay: Clonogenic assay; format: cell-based
# Procedure: Concentration- and time-survival studies will be carried out against HCT-116 cells. HCT-116 cells are seeded at 200 to 20,000 cells in 60 mm dishes. Drug is added to the medium (RPMI+10% FBS) at concentrations of 1 mg/ml and 10-fold dilutions thereof. […] The dishes are incubated for 7 days, media removed and the colonies stained with methylene blue. Colonies containing 50 cells or more are counted. The results are normalized to an untreated control. Plating efficiency for the untreated cells is about 90%. Repeat experiments are carried out to define the cell survival range between 100% and […]. Subsequently, a concentration is chosen that yields a survival of 10^−2 at 24 hr and time-survival studies carried out from 0 to 48 hr. Both concentration- and time-survival curves are constructed so that AUC values can be calculated. A comparison of tumor to normal provides a theoretical basis for determining whether a compound might be active in therapeutic trials in vivo.
# [2] = tested on: C38 (colon adenocarcinoma); assay: Disk diffusion soft agar colony formation assay, C38; format: cell-based, murine
# Excerpt: (§1) An in vitro cell-based assay was employed to identify solid tumor selectivity for compound IV. The differential cytotoxicity (Valeriote, F.; Grieshaber, C. K.; Media, J.; Pietraszkiewicz, H.; Hoffman, J.; Pan, M.; McLaughlin, S. J. Exp. Ther. Oncol. 2002, 2, 228-236) is expressed by observing a zone differential between any solid tumor cell (Colon38, ColonH116, Lung H125) and either leukemia cells (L1210 or CEM) or normal cells (CFU-GM). A sample is designated as “solid tumor selective” if (zone units of solid tumor—normal cells or leukemia cells) is greater than 250 units.
# (§2) Colon 38 gives a good monodispersed cell suspension with mechanical disruption from a mouse tumor. […]
# (§3) All of the human cancer cell lines are maintained in cell culture. […] The cells are passed through an 18-gauge needle twice and the monodispersed suspension counted. […]
# (§4) A volume of 15 μl of each sample is dropped onto a 6.5 mm disk (Baxter filter disks). […] The plates are incubated for 7-10 days (depending upon the cell type) and examined by an inverted stereo-microscope (10×) for measurement of the zone of inhibition measured from the edge of the filter disk to the beginning of normal-sized colony formation. […] At some dilution, quantifiable cytotoxicity is invariably obtained.
# (§5) • a Measured in zone units: 200 zone units=6 mm. […]
# [3] = tested on: CFU-GM-h (colony-forming unit-granulocyte macrophage; normal hematopoietic); assay: Disk diffusion soft agar colony formation assay, CFU-GM-h; format: cell-based, human; settings: 7.5 μg/ml
# Excerpt: as §1, §2, §3, §4, §5
# [4] = tested on: HCT-116 cells in SCID mice; assay: In vivo therapeutic trials; settings: for time taken for tumor volume to reach 4-times the initial volume: control 7 days
# Procedure: For the in vivo studies HCT-116 cells in SCID mice will be used. Individual mouse body weights for each experiment are within 5 g and all mice are over 17 g at the start of therapy. The mice are supplied food and water ad libidum. The animals are pooled, implanted subcutaneously with 10^7 cultured cells, and pooled again before distribution to treatment and control groups. Chemotherapy is started when the tumors reach a measurable size (about 150 mm^3). Initially, a 1 hour intravenous infusion will be given and the whole animal toxicity and therapeutic effect correlated with the pharmacology studies described above. Dosage levels are usually closely spaced (2-fold increments or 0.5 decrements). All drugs will be administered intravenously. Mice are killed when their tumors reach 1500 mm^3. Tumor weights are estimated from 2-dimensional caliper measurements done twice a week: Tumor Weight (mg)=(a×b^2)/2 • where a and b are the tumor length and width, respectively, in mm.
# For this in vivo study with compound IV, 4 mice were in the control group, 4 in the 2 mg/ml and 1 in the 3 mg/ml groups.
# The data were analyzed in terms of time taken for tumor volume to reach 4-times the initial volume. For control tumors this was 7 days, for the 2 mg/ml (0.5 mg/mouse; 25 mg/kg) dose, this was 10 days; and for the 3 mg/ml (0.75 mg/mouse; […]), this was 15 days. Thus, at the maximum tolerated dose there was a T/C of about 50%.
# [5] = tested on: H116 (colon); assay: Disk diffusion soft agar colony formation assay, H116; format: cell-based, human
# Excerpt: as §1, §2, §3, §4, §5
# [6] = tested on: H125 (lung); assay: Disk diffusion soft agar colony formation assay, H125; format: cell-based, human
# Excerpt: as §1, §2, §3, §4, §5
# [7] = mouse, in vivo
# Procedure: In this dose calculation stage, the projected starting dose is based primarily on the solubility of the new compound. Potential doses are calculated on the basis of blood volume and total body water in mice.
# The starting dose is selected on the basis of solubility of the compound in biologically compatible solvents, and the potency derived from in vitro studies.
# To start, one normal SCID mouse is dosed intravenously with the solubilized/formulated compound via a one-hour infusion at a maximum dose of 20 mg/mL. The volume infused is 0.25 ml over the one-hour period. If the animal survives the dosing period, clinical signs are noted, and the animal is sacrificed at two hours post infusion and blood collected for subsequent analytical determinations. Two additional SCID mice are then similarly infused with the compound, one being sacrificed at the end of infusion and blood collected and analyzed for drug concentration. The third animal is housed for 2 weeks to ascertain survival, and then euthanized. During the two-week observation period, the animal will be monitored for clinical signs of distress and euthanized if moribund. The dosing data and pharmacologic information (estimate of half-life) from these three animals will guide the subsequent time-course study by approximating a tolerable dose and clearance of the agent. […]
# [8] = Pharmacokinetics; format: in vivo, male SCID mice bearing H116 tumors; settings: 18.5 mg/kg
# Procedure: Compound IV was administered at 18.5 mg/kg to male SCID mice bearing H116 tumors.
# By 24 h after drug administration, the concentration of compound IV is about 100 ng/ml.
# [9] = tested on: CFU-GM-m (colony-forming unit-granulocyte macrophage; normal hematopoietic); assay: Disk diffusion soft agar colony formation assay, CFU-GM-m; format: cell-based, murine; settings: 7.5 μg/ml
# Excerpt: as §1, §2, §3, §4, §5
# [10] = tested on: CEM (leukemia); assay: Disk diffusion soft agar colony formation assay, CEM; format: cell-based, human
# Excerpt: as §1, §2, §3, §4, §5
# [11] = tested on: L1210 (lymphocytic leukemia); assay: Disk diffusion soft agar colony formation assay, L1210; format: cell-based, murine; settings: 7.5 μg/ml
# Excerpt: as §1, §2, §3, §4, §5
smiles,measurement,setting,value
COc1cc(-c2ccnc3c2C(=O)c2ncc(C)cc2C3=O)ccc1OCCCN [Compound IV],concentration at which a therapeutic effect would be obtained,[1]; 7-day continuous exposure,~0.2 µg/mL
same,concentration at which a therapeutic effect would be obtained,[1]; maintained for a 24 h period,~10 µg/mL
same,zone of inhibition C38,[2]; 1.9 μg/ml,100 zone units
same,zone of inhibition C38,[2]; 7.5 μg/ml,550 zone units
same,zone of inhibition CFU-GMh,[3],650 zone units
same,time taken for tumor volume to reach 4-times the initial volume,[4]; 2 mg/ml (0.5 mg/mouse; 25 mg/kg) dose,10 days
same,time taken for tumor volume to reach 4-times the initial volume,[4]; 3 mg/ml (0.75 mg/mouse; 38.5 mg/kg),15 days
same,T/C,[4]; at the maximum tolerated dose,about 50%
same,zone of inhibition H116,[5]; 1.9 μg/ml,350 zone units
same,zone of inhibition H116,[5]; 7.5 μg/ml,800 zone units
same,zone of inhibition H125,[6]; 1.9 μg/ml,600 zone units
same,zone of inhibition H125,[6]; 7.5 μg/ml,>1000 zone units
same,Lethal Dose,[7]; SCID,50 mg/kg
same,observation after injection,[7]; 40 mg/kg,survived but looked shaky right after injection
same,concentration attained in the plasma,[8]; over at least a 2-h period,approximately 1 μg/ml
same,concentration attained in the tumor,[8]; over at least a 2-h period,approximately 1 μg/ml
same,concentration at 24 h,"[8]; male, SCID, mouse, in vivo, 24 h after drug administration, read-out: concentration of compound IV",~100 ng/mL
same,zone of inhibition CFU-GMm,[9],650 zone units
same,zone of inhibition CEM,[10]; 1.9 μg/ml,150 zone units
same,zone of inhibition CEM,[10]; 7.5 μg/ml,550 zone units
same,zone of inhibition L1210,[11],500 zone units
